The source of these data is US7678913B2, “Ureas as factor Xa inhibitors” (Portola Pharmaceuticals, Inc., priority 2004, dated 2010).

Each structure is given as a SMILES string.

The test addresses T1, human plasma protein factor Xa (Homo sapiens, UniProt P00742).
T1 construct: measure proteolytic activity of the enzyme (factor Xa); purchased Haematologic Technologies (Essex Junction, Vt.); host or cells: human plasma
The test can be described thus: Factor Xa IC50 determination (cleavage of chromogenic substrate S-2765). It counts as biochemical. The settings on record: fXa 1 nM, S-2765 100 μM, Tris buffered saline pH 7.4, room temperature. In outline:
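Human plasma factor Xa (1 nM) preincubated 5 min at room temperature with inhibitor (0.01 nM–10 μM final) in Tris-buffered saline pH 7.4 with CaCl2, BSA and 5% DMSO. S-2765 added at 100 μM; pNA release at 405 nm over 2 min; initial velocities fitted to four-parameter equation for IC50, duplicates.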

A word on the IC50: it is the concentration that gives 50% inhibition.

T1 sequence (P00742 235-488 limits assumed): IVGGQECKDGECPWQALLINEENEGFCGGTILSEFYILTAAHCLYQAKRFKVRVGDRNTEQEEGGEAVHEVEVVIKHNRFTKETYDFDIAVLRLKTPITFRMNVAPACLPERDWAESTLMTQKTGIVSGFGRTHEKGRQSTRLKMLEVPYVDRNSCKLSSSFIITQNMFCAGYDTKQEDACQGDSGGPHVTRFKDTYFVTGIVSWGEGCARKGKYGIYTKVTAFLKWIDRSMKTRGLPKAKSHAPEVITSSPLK
T1 sequence (P00742 41-179 partner limits assumed): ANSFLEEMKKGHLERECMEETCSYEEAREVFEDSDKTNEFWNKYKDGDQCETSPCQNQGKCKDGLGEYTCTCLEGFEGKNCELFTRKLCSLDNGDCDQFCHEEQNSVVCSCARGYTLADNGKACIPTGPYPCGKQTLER

The molecule `O=C(Nc1ccc(Br)cc1)NC(C(=O)Nc1ccc(-c2cccc[n+]2[O-])cc1)c1ccccc1F` (centres unmarked) [Example 52, N-[4-(N-oxo-pyridin-2-yl)phenyl]-2-(2-fluorophenyl)-2-(4-bromophenylaminocarbonylamino)-acetamide] returned an IC50 of at most 100 nM. The figure for `C#CCN(C)C(=N)c1ccc(NC(=O)C(NC(=O)Nc2ccc(Cl)cc2)c2ccccc2)c(F)c1` (centres unmarked) [Example 36, N-[4-(N-methyl-N-propargylaminoimino)-2-fluorophenyl]-2-phenyl-2-(4-chlorophenylaminocarbonylamino)-acetamide] is at most 100 nM; for `CC#CCC(NC(=O)Nc1ccc(Cl)cc1)C(=O)Nc1ccc(-c2cccc[n+]2[O-])cc1` (centres unmarked) [Example 131, N-[4-(N-oxo-pyridin-2-yl)phenyl]-2-(but-2-yn-1-yl)-2-(4-chlorophenylaminocarbonylamino)-acetamide] it is at most 100 nM; for `CN1CCN=C1c1ccc(NC(=O)C(NC(=O)Nc2ccc(Cl)cc2)c2cccnc2)cc1` (centres unmarked) [Example 9, N-[4-(1-methyl-4,5-dihydro-1H-imidazol-2-yl)phenyl]-2-pyridin-3-yl-2-(4-chlorophenylaminocarbonylamino)-acetamide] it is 100 to 500 nM.

Turning to `CN1CCN=C1c1ccc(NC(=O)C(Cc2c[nH]cn2)NC(=O)Nc2ccc(Cl)cc2)cc1` (centres unmarked) [Example 7, N-[4-(1-methyl-4,5-dihydro-1H-imidazol-2-yl)phenyl]-2-imidazol-4-ylmethyl-2-(4-chlorophenylaminocarbonylamino)-acetamide], the IC50 is at most 100 nM. Then `CN1CCN=C1c1ccc(NC(=O)C(NC(=O)Nc2ccc(Cl)cc2)c2ccc3c(c2)OCO3)cc1` (centres unmarked) [Example 76, N-[4-(1-methyl-4,5-dihydro-1H-imidazol-2-yl)phenyl]-2-(benzo-1,3-dioxl-5-yl)-2-(4-chlorophenylaminocarbonylamino)-acetamide], with at most 100 nM.

`Cc1ccccc1C(NC(=O)Nc1ccc(Cl)cc1)C(=O)Nc1ccc(N2CCOCC2=O)cc1` (centres unmarked) [Example 95, N-[4-(3-oxo-morpholin-4-yl)phenyl]-2-(2-methylphenyl)-2-(4-chlorophenylaminocarbonylamino)-acetamide] registered a concentration for half-maximal inhibition (IC50) of at most 100 nM. The figure for `CC(C)N1CCC(NC(=O)C(NC(=O)Nc2ccc(Cl)cc2)c2ccccc2Cl)CC1` (centres unmarked) [Example 103, N-(1-isopropylpiperidin-4-yl)-2-(2-chlorophenyl)-2-(4-chlorophenylamino-carbonylamino)-acetamide] is at least 500 nM. Consider `O=C(Nc1ccc(Cl)cc1)N[C@@H](C(=O)N1CCC(N2CCOCC2=O)CC1)c1ccccc1` [Example 142, (2R) 4-(3-morpholinon-4-yl)piperidin-1-yl-2-phenyl-2-(4-chlorophenylaminocarbonylamino)-acetamide], for which the IC50 was at most 100 nM. The figure for `O=C(Nc1ccc(Cl)s1)N[C@H](C(=O)Nc1ccc(-n2ccccc2=O)cc1)c1ccccc1` [Example 139, (2S) N-[4-(2-pyridon-1-yl)phenyl]-2-phenyl-2-(2-chlorothiophen-5-ylaminocarbonylamino)-acetamide] is at most 100 nM; for `CCOC(=O)C1CCN(C(=O)CC(NC(=O)Nc2ccc(Cl)cc2)C(=O)Nc2ccc(C3=NCCN3C)cc2)CC1` (centres unmarked) [Example 67] it is at least 500 nM; for `O=C(Nc1ccc(Cl)cc1)NC(C(=O)N1CCC(N2CCOCC2=O)CC1)c1ccccc1F` (centres unmarked) [Example 144, 4-(3-morpholinon-4-yl)piperidin-1-yl-2-(2-fluorophenyl)-2-(4-chlorophenylaminocarbonylamino)-acetamide] it is at most 100 nM.

Molecule `N=C(c1ccc(NC(=O)C(NC(=O)Nc2ccc(Cl)cc2)c2ccccc2)c(F)c1)N1CCC1` (centres unmarked) [Example 39] displayed an IC50 of at most 100 nM. As to `CN1CCN=C1c1ccc(NC(=O)C(CC(=O)NCc2ccccc2)NC(=O)Nc2ccc(Cl)cc2)cc1` (centres unmarked) [Example 69, N-[4-(1-methyl-4,5-dihydro-1H-imidazol-2-yl)phenyl]-2-(benzylamino-carbonylmethyl)-2-(4-chlorophenylaminocarbonylamino)-acetamide], the IC50 is at least 500 nM.
